Measurements from patent US5736384A (priority 1994, dated 1998).
“Also recorded” adds a separate entry of the source. Like-named read-outs stand apart in the source and are kept apart here.

How the values were obtained:
[1] = system: XP1; test: biochemical; format: biochemical, Bacillus sp. 2113; settings: inhibitor 1 mM, 4° C. overnight, also 1 mM in reaction mixture, None = 100; for activity at 1000 µM: read-out: Relative Activity(%) XP1
Description: (§1) Various inhibitors and the like were added to each of the enzyme solutions to a concentration of 1 mM and retained at 4° C. overnight. Then, the same substance was also added to a reaction mixture to a concentration of 1 mM, and the enzyme activities of XP1 and XP2 were determined.

[2] = system: XP2; format: biochemical, Bacillus sp. 2113
Description: as §1

[3] = target: T1, XP1 (Paenibacillus sp. DG-22, UniProt A4GG22); test: biochemical; format: biochemical, Bacillus sp. 2113; settings: for activity at 1000 µM: read-out: Relative Activity(%) XP1
T1 sequence (A4GG22 29-211): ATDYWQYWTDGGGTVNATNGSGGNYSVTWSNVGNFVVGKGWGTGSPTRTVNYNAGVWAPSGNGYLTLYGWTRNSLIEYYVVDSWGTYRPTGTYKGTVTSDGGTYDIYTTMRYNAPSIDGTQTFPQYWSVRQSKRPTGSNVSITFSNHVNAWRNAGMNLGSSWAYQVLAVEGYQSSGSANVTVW
Description: as §1

[4] = system: XP1; test: Effects of metal salts on enzyme activity of XP1; format: biochemical, Bacillus sp. 2113; settings: metal salt 1 mM, 4° C. overnight, also 1 mM in reaction mixture; None = 100
Description: (§2) Various metal salts were added to each of the enzyme solutions to a concentration of 1 mM and retained at 4° C. overnight. Then, a metal salt of the same kind was also added to a reaction mixture to a concentration of 1 mM, and the enzyme activities of XP1 and XP2 were determined.

[5] = system: XP2; test: Effects of metal salts on enzyme activity of XP2; format: biochemical, Bacillus sp. 2113; settings: for inhibition of XP2 by metal ion (in words): 1 mM; for Relative Activity(%) XP2: metal salt 1 mM, 4° C. overnight, also 1 mM in reaction mixture, None = 100
Description: as §2

[6] = target: T1, XP1; test: Effects of metal salts on enzyme activity of XP1; format: biochemical, Bacillus sp. 2113; settings: 1 mM
T1 sequence (A4GG22 29-211): as above
Description: as §2

[7] = Action: thin-layer chromatography of reaction products from birch xylan; format: biochemical; settings: 1% birch xylan, pH 7.0, 60° C., 10 U enzyme, TLC
Description: To 5 ml of 1% birch xylan (Sigma) solution (pH 7.0, in 40 mM sodium phosphate buffer), 10 U of each of XP1 and XP2 was added and reacted at 60° C. After a certain reaction period, the reaction was terminated by boiling and 10 μl of the reaction mixture was subjected to thin-layer chromatography using HPTLC Kieselgel 60 F254 (Merk) as a thin layer and a mixture of n-butanol, acetic acid and water (10:5:1) as a developer. The coloring was carried out by spraying a diphenylamine-aniline reagent and heating at 120° C. for 10 minutes.
The number of minutes shown in this FIG. represents the reaction time of the enzyme.

[8] = Substrate specificity; format: biochemical
[9] = Optimum pH for reaction (enzyme activity measured at each pH); format: biochemical
Description: (§3) For each of the enzymes, the optimum pH and pH stability were determined by using glycine-HCl buffer (pH 3 or below), acetate buffer (pH 4-5), sodium phosphate buffer (pH 6-7), Tris-HCl buffer (pH 8-9) and glycine-NaOH buffer (pH 9.1-10.1). The enzyme activity of each xylanase was measured at each of the pH values.
(§4) Fifty microliters of a sample solution is added to 200 μl of 1% birch xylan (Sigma) solution (pH 6.5, in 1/10 McIlvaine buffer), and reacted at 70° C. for 5 minutes. Five hundreds microliters of DNS reagent is added thereto and boiled for 5 minutes. Then, the reaction mixture is immediately ice-cooled and 4 ml distilled water is added thereto. Thereafter, absorbance at 500 nm is measured. Calibration curves are prepared by using a xylose solution of known concentration.
(§5) As to the unit of xylanase activity, one unit (U) was defined as the amount of enzyme which releases […] of reducing sugar per minute under the above conditions.

[10] = pH stability (enzyme activity after two nights in buffer); format: physicochemical; settings: retained in 50 mM buffer for two nights
Description: as §3
In addition, each of the enzymes was retained in a certain 50 mM buffer for two nights and then the enzyme activity was determined.

[11] = Enzyme activity at different temperatures (optimum / appropriate temperature); format: biochemical
Description: as §4, §5
The enzyme activity of each enzyme was determined at different temperatures.

[12] = Thermostability (residual activity after 30 min at a certain temperature); format: physicochemical; settings: 50 mM Tris-HCl buffer (pH 7.2)
Description: In addition, after each enzyme was left in 50 mM Tris-HCl buffer (pH 7.2) for 30 minutes at a certain temperature, the enzyme activity was determined.

[13] = Determination of xylanase activity (DNS reducing sugar method); format: biochemical; settings: purified enzyme
Description: as §4, §5
Fifty microliters of the crude enzyme solution was added to 200 μl of 1% birch xylan (Sigma) solution (in 1/10 McIlvaine buffer, pH 6. 5), and reacted at 70° C. for 5 minutes.
After addition of DNS reagent (500 μl) and subsequent boiling for 5 minutes, the reaction mixture was immediately ice-cooled and 4 ml of distilled water was added thereto. Then, absorbance at 500 nm was measured. Calibration curves were prepared by using a xylose solution of known concentration.
As to the unit of xylanase activity, one unit (U) was defined as the amount of enzyme which releases 1 μmol of reducing sugar per minute under the above conditions. […]

[14] = inhibitor 1 mM, 4° C. overnight, also 1 mM in reaction mixture, None = 100

With `O[C@H](CS)[C@H](O)CS` (racemic) [Dithiothreitol] the activity at 1000 µM [1] was 85% and the “Relative Activity(%) XP2” value [2, 14] was 82%.

In the case of `O=C(O)CN(CCN(CC(=O)O)CC(=O)O)CC(=O)O` [EDTA], the “inhibition of XP1 by inhibitor (in words)” value [3] is reported as “weakly inhibited”, the activity at 1000 µM [3] is reported as 59% and the “Relative Activity(%) XP2” value [2] is reported as 65%. The “inhibition of XP2 by inhibitor (in words)” value [2] was “weakly inhibited”.

In the case of `[Cl][Mn][Cl]` [MnCl2], the “Relative Activity(%) XP1” value [4] is reported as 99%, the “inhibition of XP2 by metal ion (in words)” value [5] is reported as “weakly inhibited” and the “Relative Activity(%) XP2” value [5] is reported as 74%.

In the case of `[Cl][Ni][Cl]` [NiCl2], the “Relative Activity(%) XP1” value [4] is reported as 129% and the “Relative Activity(%) XP2” value [5] is reported as 93%.

With `CCCCCCCCCCCCOS(=O)(=O)O` [SDS] the “inhibition of XP1 by inhibitor (in words)” value ([3]; 1 mM) was “strongly inhibited”, the activity at 1000 µM [1] was 0% and the “inhibition of XP2 by inhibitor (in words)” value ([2]; 1 mM) was “strongly inhibited”. The “Relative Activity(%) XP2” value [2, 14] was 0%.

For `[Ba+2].[Cl-].[Cl-]` [BaCl2], the “Relative Activity(%) XP1” value [4] was 137% and the “Relative Activity(%) XP2” value [5] was 108%.

For `[Cl][Hg][Cl]` [HgCl2], the “inhibition of XP1 by metal ion (in words)” value [6] was “strongly inhibited”, the “Relative Activity(%) XP1” value [4] was 24% and the “inhibition of XP2 by metal ion (in words)” value [5] was “strongly inhibited”. For the same compound, the “Relative Activity(%) XP2” value [5] was 0%.

For `O=C(O)CI` [Iodoacetic acid], the “inhibition of XP1 by inhibitor (in words)” value [3] was “weakly inhibited”, the activity at 1000 µM [3] was 75% and the “Relative Activity(%) XP2” value [2] was 76%. The “inhibition of XP2 by inhibitor (in words)” value [2] was “weakly inhibited”.

With `[Cl-].[Rb+]` [RbCl] the “Relative Activity(%) XP1” value [4] was 121% and the “Relative Activity(%) XP2” value [5] was 98%.

In the case of `[Ca+2].[Cl-].[Cl-]` [CaCl2], the “Relative Activity(%) XP1” value [4] is reported as 106% and the “Relative Activity(%) XP2” value [5] is reported as 98%.

In the case of “XP1: thermostable xylanase from Bacillus sp. 2113 culture, active fraction eluted earlier; amino acid sequence SEQ ID NO: 1”, the “products formed upon acting on xylan” value [7] is reported as “xyloligosaccharides”, the substrate specificity [8] is reported as “act on prepared xylans such as birch xylan and oat spelt xylan, as well as xylan-containing materials such as hardwood kraft pulp and oat spelt bran; also recorded: acting on prepared xylans including birch xylan and oat spelt xylan, as well as xylan-containing materials including hardwood kraft pulp and oat spelt bran” and the “optimum pH for reaction” value [9] is reported as 5-8. The “pH at which the xylanase is stable” value [10] was 3.0-9.0, the “optimum temperature for reaction” value [11] was 70 °C and the “residual enzyme activity after 30 min treatment at 50° C.” value ([12]; 50° C.) was at least 90%. The “residual enzyme activity after 30 min treatment at 60° C.” value ([12]; 60° C.) was at least 50% and the specific activity [13] was 1420 U/mg.

In the case of `[Cl-].[Cl-].[Mg+2]` [MgCl2], the “Relative Activity(%) XP1” value [4] is reported as 129% and the “Relative Activity(%) XP2” value [5] is reported as 103%.

With `[Cl-].[Cl-].[Co+2]` [CoCl2] the “Relative Activity(%) XP1” value [4] was 107%, the “inhibition of XP2 by metal ion (in words)” value [5] was “weakly inhibited” and the “Relative Activity(%) XP2” value [5] was 70%.

With `O=S(=O)([O-])[O-].[Fe+2]` [FeSO4] the “Relative Activity(%) XP1” value [4] was 165% and the “Relative Activity(%) XP2” value [5] was 99%.

With `[Cl][Al]([Cl])[Cl]` [AlCl3] the “Relative Activity(%) XP1” value [4] was 110% and the “Relative Activity(%) XP2” value [5] was 100%.

For `[Cl-].[Li+]` [LiCl], the “Relative Activity(%) XP1” value [4] was 128% and the “Relative Activity(%) XP2” value [5] was 99%.

In the case of `[N-]=[N+]=[N-].[Na+]` [NaN3], the “Relative Activity(%) XP1” value [1] is reported as 96% and the “Relative Activity(%) XP2” value [2, 14] is reported as 109%.

With `[Cl][Cu][Cl]` [CuCl2] the “Relative Activity(%) XP1” value [4] was 87%, the “inhibition of XP2 by metal ion (in words)” value [5] was “weakly inhibited” and the “Relative Activity(%) XP2” value [5] was 68%.
